Experimental data published in ChEMBL document CHEMBL5108067, “Discovery of Potent OTUB1/USP8 Dual Inhibitors Targeting Proteostasis in Non-Small-Cell Lung Cancer” (J Med Chem, 2022).
pIC50: −log10 of the molar value.

Assays:
[1] = biological target: T1, Ubiquitin carboxyl-terminal hydrolase 1 (Homo sapiens, UniProt O94782); test: Inhibition of USP1 (unknown origin) using Ub-Rho measured after 0.5 to 3 hrs
T1 sequence (O94782 whole entry): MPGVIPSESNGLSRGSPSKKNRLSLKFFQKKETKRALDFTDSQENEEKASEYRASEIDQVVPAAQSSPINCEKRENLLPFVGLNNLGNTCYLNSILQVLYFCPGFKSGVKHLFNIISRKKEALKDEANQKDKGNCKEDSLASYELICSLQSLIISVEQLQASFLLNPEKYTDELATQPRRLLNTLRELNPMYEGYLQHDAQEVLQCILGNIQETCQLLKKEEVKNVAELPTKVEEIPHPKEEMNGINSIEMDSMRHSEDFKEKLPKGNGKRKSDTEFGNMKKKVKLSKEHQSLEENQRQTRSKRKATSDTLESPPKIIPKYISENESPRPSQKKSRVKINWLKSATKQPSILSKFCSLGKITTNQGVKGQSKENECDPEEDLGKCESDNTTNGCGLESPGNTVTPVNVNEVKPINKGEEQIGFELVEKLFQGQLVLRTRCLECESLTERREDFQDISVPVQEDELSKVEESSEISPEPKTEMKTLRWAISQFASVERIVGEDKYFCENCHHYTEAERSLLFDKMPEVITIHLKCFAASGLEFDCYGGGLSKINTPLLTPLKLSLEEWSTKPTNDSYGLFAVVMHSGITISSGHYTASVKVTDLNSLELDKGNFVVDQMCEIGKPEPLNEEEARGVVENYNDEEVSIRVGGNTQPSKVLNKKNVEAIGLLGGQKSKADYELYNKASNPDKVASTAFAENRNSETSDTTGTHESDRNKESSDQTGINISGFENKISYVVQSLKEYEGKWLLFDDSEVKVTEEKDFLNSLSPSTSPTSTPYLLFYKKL

[2] = biological target: T2, Ubiquitin carboxyl-terminal hydrolase 36 (Homo sapiens, UniProt Q9P275); test: Inhibition of USP36 (unknown origin) using Ub-Rho measured after 0.5 to 3 hrs
T2 sequence (Q9P275 whole entry): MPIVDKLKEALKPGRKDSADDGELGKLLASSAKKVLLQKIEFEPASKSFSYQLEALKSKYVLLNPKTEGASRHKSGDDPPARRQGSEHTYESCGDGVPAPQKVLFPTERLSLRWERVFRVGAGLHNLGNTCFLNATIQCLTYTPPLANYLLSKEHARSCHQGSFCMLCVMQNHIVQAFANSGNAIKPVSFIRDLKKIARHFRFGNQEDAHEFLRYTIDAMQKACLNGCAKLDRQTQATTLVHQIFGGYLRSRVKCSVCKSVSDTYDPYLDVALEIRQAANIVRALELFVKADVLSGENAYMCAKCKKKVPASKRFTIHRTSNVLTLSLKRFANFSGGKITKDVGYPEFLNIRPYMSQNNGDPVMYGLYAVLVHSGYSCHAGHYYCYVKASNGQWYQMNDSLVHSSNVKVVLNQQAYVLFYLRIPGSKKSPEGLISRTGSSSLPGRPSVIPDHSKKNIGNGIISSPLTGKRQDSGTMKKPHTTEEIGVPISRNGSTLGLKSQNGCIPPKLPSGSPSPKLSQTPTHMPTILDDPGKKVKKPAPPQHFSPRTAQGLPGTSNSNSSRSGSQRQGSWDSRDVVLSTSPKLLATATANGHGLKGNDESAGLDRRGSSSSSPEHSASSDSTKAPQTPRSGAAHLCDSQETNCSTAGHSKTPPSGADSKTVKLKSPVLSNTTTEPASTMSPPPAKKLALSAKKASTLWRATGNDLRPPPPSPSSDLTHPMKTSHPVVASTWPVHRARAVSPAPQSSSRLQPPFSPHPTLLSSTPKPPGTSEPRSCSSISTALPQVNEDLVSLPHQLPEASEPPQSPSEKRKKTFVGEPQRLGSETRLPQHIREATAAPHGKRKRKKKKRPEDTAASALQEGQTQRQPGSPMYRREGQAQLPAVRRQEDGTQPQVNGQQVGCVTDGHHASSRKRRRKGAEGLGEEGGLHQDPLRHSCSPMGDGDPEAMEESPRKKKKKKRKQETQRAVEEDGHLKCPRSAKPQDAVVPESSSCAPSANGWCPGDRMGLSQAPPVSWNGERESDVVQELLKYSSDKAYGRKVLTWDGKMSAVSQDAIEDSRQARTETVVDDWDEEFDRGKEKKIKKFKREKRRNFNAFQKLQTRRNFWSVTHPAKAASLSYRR

[3] = system: NCI-H1975; test: Antiproliferative activity against human NCI-H1975 cells harboring wild type KRAS incubated for 72 hrs by MTT assay; assay type: functional, cell-based; conditions: NCI-H1975, 72 h
[4] = biological target: T3, Ubiquitin thioesterase OTUB1 (Homo sapiens, UniProt Q96FW1); test: Destabilization of N-terminal His-6 tagged OTUB1 (40 to 271 residues) (unknown origin) expressed in Escherichia coli BL21 (DE3) cells assessed as reduction in melting temperature at 200 uM measured for 2 hrs in presence of dithiothreitol by SYPRO orange dye based thermal shift assay
[5] = biological target: Ubiquitin carboxyl-terminal hydrolase 7 (Homo sapiens, UniProt Q93009); test: Inhibition of USP7 (unknown origin) using Ub-Rho measured after 0.5 to 3 hrs
[6] = biological target: T3, Ubiquitin thioesterase OTUB1; test: Inhibition of N-terminal His-6 tagged OTUB1 (40 to 271 residues) (unknown origin) expressed in Escherichia coli BL21 (DE3) cells at 10 nM using Ub-Rho measured after 0.5 to 3 hrs by fluorescence based Plate reader method relative to control; conditions: time 0.5-3 hrs, values are per cent of control

Sequence of Ubiquitin carboxyl-terminal hydrolase 7 (Q93009 whole entry, the tested form may be a part): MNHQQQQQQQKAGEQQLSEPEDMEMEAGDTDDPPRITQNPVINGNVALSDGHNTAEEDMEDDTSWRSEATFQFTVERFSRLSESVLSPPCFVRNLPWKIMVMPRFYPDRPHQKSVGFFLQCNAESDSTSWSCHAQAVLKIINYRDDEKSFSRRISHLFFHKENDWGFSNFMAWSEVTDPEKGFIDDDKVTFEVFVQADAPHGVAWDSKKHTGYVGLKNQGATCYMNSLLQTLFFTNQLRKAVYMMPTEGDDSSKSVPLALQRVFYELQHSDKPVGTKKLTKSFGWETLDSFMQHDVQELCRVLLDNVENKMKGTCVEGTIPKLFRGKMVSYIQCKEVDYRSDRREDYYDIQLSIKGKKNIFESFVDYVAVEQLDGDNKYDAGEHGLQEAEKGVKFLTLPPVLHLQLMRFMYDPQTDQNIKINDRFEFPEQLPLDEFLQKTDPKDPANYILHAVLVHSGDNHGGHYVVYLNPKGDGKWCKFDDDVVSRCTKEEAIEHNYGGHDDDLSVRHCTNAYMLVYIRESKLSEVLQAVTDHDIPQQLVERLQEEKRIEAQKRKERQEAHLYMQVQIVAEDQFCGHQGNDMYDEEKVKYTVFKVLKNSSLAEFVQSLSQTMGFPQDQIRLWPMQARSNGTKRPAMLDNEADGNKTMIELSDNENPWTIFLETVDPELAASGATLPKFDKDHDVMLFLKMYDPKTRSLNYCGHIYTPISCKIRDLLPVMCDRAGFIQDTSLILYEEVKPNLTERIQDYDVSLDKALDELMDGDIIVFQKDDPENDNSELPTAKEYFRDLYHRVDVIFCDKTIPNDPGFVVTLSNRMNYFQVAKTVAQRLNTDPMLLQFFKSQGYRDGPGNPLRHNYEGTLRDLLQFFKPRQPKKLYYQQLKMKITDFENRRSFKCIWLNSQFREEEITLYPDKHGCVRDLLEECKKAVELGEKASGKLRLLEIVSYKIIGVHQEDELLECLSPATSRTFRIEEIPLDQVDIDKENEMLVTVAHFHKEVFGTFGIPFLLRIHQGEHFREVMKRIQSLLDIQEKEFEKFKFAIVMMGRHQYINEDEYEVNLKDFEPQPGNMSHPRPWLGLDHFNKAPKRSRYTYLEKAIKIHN
T3 sequence (Q96FW1 whole entry, the tested form may be a part): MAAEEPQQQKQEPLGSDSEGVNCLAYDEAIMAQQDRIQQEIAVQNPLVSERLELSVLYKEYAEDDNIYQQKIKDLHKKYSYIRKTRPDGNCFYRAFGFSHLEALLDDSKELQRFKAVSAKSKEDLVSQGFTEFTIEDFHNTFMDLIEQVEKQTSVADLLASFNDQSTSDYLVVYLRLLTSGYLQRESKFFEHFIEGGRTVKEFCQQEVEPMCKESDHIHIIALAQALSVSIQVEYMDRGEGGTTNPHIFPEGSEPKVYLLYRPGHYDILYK

| SMILES | pIC50 [1] | pIC50 [2] | pIC50 [3] | ΔTm [4] [°C] | pIC50 [5] | residual activity [6] [%] |
| --- | --- | --- | --- | --- | --- | --- |
| CN1CC[C@@H](Oc2ccc(Cl)c(-c3nc4c(o3)C(=O)c3ccccc3C4=O)c2)C1 | 5.72 | < 5.00 | 7.06 | 1 | < 5.00 | 28.9 |
| CN1CC[C@@H](Oc2ccc(Cl)c(-c3nc4c(o3)C(=O)c3ccccc3C4=O)c2F)C1 | 5.68 | 5.14 | 6.92 | 1 | < 5.00 | 10.7 |
| CN1CC[C@@H](Oc2ccc(F)c(-c3nc4c(o3)C(=O)c3ccccc3C4=O)c2Cl)C1 | 5.86 | 5.08 | 6.93 | 2.5 | < 5.00 | 10.5 |
| O=C1c2ccccc2C(=O)c2oc(-c3cccnc3)nc21 | 6.00 | 5.41 | 7.01 | 1 | < 5.00 | 42.4 |
